The values that follow come from patent US20090053338A1, “Method for the preparation of phytoprogestogenic extracts from rhizoma ligusticum chuanxiong and uses thereof” (priority 2003, published 2009).

Series [1] relates to male Sprague-Dawley rats. The following applies: subcutaneous; MPA 10 mg. The text has this: Each data point is the Mean±SEM of samples obtained from 6 different rats. Bars indicate progestogenic activity of original MPA and L.C. extract in-vitro. Progestogenic activity is expressed as fold increase compared to cells exposed to vehicle only.
For series [2], the system named is male Sprague-Dawley rats. The protocol: Sprague-Dawley rats were fasted overnight. Two mls of L.C. (2 g), MPA (10 mg) and vehicle (60% Ethanol) were orally fed to male rats using gavage tubes. Serum samples were collected from the tail vein at indicated time points, before and after L.C. administration. Bioactive progestogens were extracted from serum and tested for progestogenic activity using our receptor-based bioassay. Each data point is the Mean±SEM of samples obtained from 6 different rats. Bars indicate progestogenic activity of original MPA and L.C. extract in-vitro. Progestogenic activity is expressed as fold increase compared to cells exposed to vehicle only.
To determine the pharmacokinetics and bioequivalence of LC, we measured the progestogenic effect of rat serum sampled at defined time points after oral doses of LC (2 g/2 ml), MPA (10 mg/2 ml), and vehicle only (2 ml 60% ethanol). Serum samples were extracted and progesterone effect measured as in Example 12.

Series [3] has as its system subjects with transient ischemic attack. Particulars: cited from earlier work.
For series [4], the target named is T1, human progesterone receptor (PR-B) (Homo sapiens, UniProt P06401).
T1 construct: DNA encoding the full length human progesterone receptor (PR-B); expressed in transfected cells; host or cells: HeLa cells
T1 sequence (P06401 1-933): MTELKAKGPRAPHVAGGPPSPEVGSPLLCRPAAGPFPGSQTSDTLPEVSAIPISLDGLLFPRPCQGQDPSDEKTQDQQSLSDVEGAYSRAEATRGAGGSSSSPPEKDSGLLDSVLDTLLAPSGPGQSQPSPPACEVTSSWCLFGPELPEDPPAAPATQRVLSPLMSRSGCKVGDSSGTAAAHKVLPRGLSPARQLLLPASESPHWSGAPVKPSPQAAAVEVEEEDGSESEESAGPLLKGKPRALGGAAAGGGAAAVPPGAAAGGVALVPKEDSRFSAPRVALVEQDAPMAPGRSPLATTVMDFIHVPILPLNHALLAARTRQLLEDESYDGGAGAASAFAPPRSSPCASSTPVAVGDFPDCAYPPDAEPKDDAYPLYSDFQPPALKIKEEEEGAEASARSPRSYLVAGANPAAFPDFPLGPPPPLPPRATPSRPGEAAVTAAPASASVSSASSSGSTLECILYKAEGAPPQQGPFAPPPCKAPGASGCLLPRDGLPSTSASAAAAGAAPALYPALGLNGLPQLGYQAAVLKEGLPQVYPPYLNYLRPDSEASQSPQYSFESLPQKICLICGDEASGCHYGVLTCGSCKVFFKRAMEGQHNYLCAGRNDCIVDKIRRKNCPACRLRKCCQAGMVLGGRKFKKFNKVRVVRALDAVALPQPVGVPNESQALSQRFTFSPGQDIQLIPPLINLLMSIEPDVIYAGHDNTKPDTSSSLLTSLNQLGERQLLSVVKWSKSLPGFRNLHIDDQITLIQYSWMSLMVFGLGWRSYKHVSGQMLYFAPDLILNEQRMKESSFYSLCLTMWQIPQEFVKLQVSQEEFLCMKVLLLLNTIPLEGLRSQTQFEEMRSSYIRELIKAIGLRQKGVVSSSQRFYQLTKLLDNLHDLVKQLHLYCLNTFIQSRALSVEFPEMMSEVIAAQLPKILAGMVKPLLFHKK
Nature of the series: cell-based progesterone reporter gene assay (PR-B + PRE2-TATA-LUC luciferase) in HeLa cells. Particulars: peak activity at 10 μM. A general note: A reporter such as luciferase makes a cellular process visible.
Text: In the progestogen receptor assay of the invention, HeLa cells grown in 24-well microtiter plates were transiently co-transfected with two plasmids using lipofectamine. The first plasmid consisted of DNA encoding the full length human progesterone receptor (PR-B), and the second a progesterone reporter gene (PRE2-TATA-LUC) comprising a luciferase reporter gene driven by two copies of the progesterone response element from the aminotransferase gene. […] Replicate wells were exposed to vehicle only (ethanol) and used as negative controls. After the period of incubation, cells were rinsed with PBS buffer, lysis buffer (Promega Corp) was added, and cell lysates collected for measurement of luciferase activity. Progestogenic activity of the ligands was expressed as fold-increase in luciferase activity compared with control cells exposed to vehicle only. All data points were in triplicate. […] To begin the search for phyto-progestogens in Traditional Chinese herbal medicines, The Pharmacopoeia of the People's Republic of China (1997) was consulted and 13 herbs reported to have “uterotonic activity” were selected for screening. […] The herbal residues were re-extracted a second time with the same solvent for 2-3 hours. […] Dried extracts were weighed and re-suspended in 100% ethanol or methanol to a concentration 50 mg/ml.

Series [5] has as its system patients with acute cerebral infarction. Particulars: cited from earlier work.

Turning to `CC(=O)O[C@]1(C(C)=O)CC[C@H]2[C@@H]3C[C@H](C)C4=CC(=O)CC[C@]4(C)[C@H]3CC[C@@]21C` [MPA, 6α-methyl-17α-hydroxy-progesterone acetate], in series [1], the “peak progestogenic activity versus serum from rats administered vehicle only” value was “about 5 fold”. Further, in series [2] (male, Sprague-Dawley, rat, in vivo, po), the “maintenance of peak / high levels of progestogenic effect” value is listed as “maintained throughout the 24 hour of sampling”. Moreover, the “peak progesterone activity in words” value in series [2] (oral) was “comparable to that observed with saturating doses of progesterone in-vitro”. For the same compound, the “serum activity versus baseline of rats administered vehicle only” value in series [2] (oral, MPA 10 mg/2 ml) is on record as “about 5 fold”. As to `CC(=O)Oc1ccccc1C(=O)O` [aspirin], the total effective rate in series [3] is on record as 61.7%. With `CC(=O)O[C@]1(C(C)=O)CC[C@H]2[C@@H]3C=C(C)C4=CC(=O)CC[C@]4(C)[C@H]3CC[C@@]21C` [megesterol acetate], the “increase in hormonal activity over controls exposed to vehicle only at peak activity” value in series [4] worked out at 300 fold.

In the case of `CC(=O)[C@H]1CC[C@H]2[C@@H]3CCC4=CC(=O)CC[C@]4(C)[C@H]3CC[C@]12C` [progesterone], the “increase in hormonal activity over controls exposed to vehicle only at peak activity” value in series [4] was 300 fold. With dextran 40, the “total therapeutic efficacy rate” value in series [5] is given as 62.8%.
